The target of test [1] is muscarinic acetylcholine receptors. The experiment in a line: inhibition of specific binding of 3H-Oxotremorine-M (3H-Oxo), rat cortex homogenate. On the set-up: species or system male Wistar rats. To be noted: 1.0 nM 3H-Oxotremorine, pH 7.4, 30 min, 25° C. An excerpt: The pharmacological properties of the compounds of the invention can be illustrated by determining their capability to inhibit the specific binding of ^3 H-Oxotremorine-M (^3 H-Oxo). Birdsdall N. J. M., Hulme E. C., and Burgen A. S. V. (1980). "The Character of Muscarinic Receptors in Different Regions of the Rat Brain". Proc. Roy. Soc. London (Series B) 207,1.
The inhibitory effects of compounds on ^3 H-Oxo binding reflects the affinity for muscarinic acetylcholine receptors.
All preparations are performed at 0-4° C. unless otherwise indicated. Fresh cortex (0.1-1 g) from male Wistar rats (150-250 g) is homogenized for 5-10 s in 10 ml 20 mM Hepes pH: 7.4, with an Ultra-Turrax homogenizer. The homogenizer is rinsed with 10 ml of buffer and the combined suspension centrifuged for 15 min. at 40,000×g. The pellet is washed three times with buffer. In each step the pellet is homogenized as before in 2×10 ml of buffer and centrifuged for 10 min. at 40,000×g.
The final pellet is homogenized in 20 mM Hepes pH: 7.4 (100 ml per g of original tissue) and used for binding assay. Aliquots of 0.5 ml is added 25 ul of test solution and 25 ul of ^3 H-Oxotremorine (1.0 nM, final concentration) mixed and incubated for 30 min. at 25° C. Non-specific binding is determined in triplicate using arecoline (1 ug/ml, final concentration) as the test substance. After incubation samples are added 5 ml of ice-cold buffer and poured directly onto Whatman GF/C glass fiber filters under suction and immediately washed 2 times with 5 ml of ice-cold buffer. The amount of radioactivity on the filters are determined by conventional liquid scintillation counting. Specific binding is total binding minus non specific binding.
Test substances are dissolved in 10 ml water (if necessary heated on a steam-bath for less than 5 min.) at a concentration of 2.2 mg/ml. 25-75% inhibition of specific binding must be obtained before calculation of IC50.
The test value will be given as IC50 (the concentration (nM) of the test substance which inhibits the specific binding of ^3 H-Oxo by 50%).
(§1) IC50 =(applied test substance concentration) [formula] where Co is specific binding in control assays and Cx is the specific binding in the test assay. (The calculations assume normal mass-action kinetics).

Test [2] deals with T1, subtype of muscarinic receptors (M1-site) (Rattus norvegicus, UniProt P08482).
T1 construct: from tissue; host or cells: rat cerebral cortex membranes (male Wistar rats)
T1 sequence (P08482 1-460): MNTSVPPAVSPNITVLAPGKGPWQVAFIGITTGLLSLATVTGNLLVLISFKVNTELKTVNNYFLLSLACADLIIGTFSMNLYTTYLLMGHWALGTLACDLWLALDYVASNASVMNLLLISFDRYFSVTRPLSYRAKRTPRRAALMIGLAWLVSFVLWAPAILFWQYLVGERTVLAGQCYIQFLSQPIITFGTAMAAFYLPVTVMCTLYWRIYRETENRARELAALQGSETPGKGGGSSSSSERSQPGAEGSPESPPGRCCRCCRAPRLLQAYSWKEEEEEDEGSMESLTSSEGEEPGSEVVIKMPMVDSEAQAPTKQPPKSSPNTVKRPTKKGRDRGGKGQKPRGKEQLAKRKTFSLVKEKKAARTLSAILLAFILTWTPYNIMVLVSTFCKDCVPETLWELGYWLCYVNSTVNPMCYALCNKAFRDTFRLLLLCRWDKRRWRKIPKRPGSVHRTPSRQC
The experiment in a line: inhibition of 3H-PRZ (pirenzepine, [N-methyl-3H]) binding to rat cerebral cortex membranes. On the set-up: species or system male Wistar rats. To be noted: 1.0 nM 3H-Pirenzepine, pH 7.4, 60 min, 20° C, read-out: IC50, 3H-Pz.
Description: Furthermore the pharmacological properties of the compounds of the invention can also be illustrated by determining their capability to inhibit ^3 H-PRZ (pirenzepine, [N-methyl-^3 H]) binding to rat cerebral cortex membranes.
Pirenzepine binds selectively to subtype of muscarinic receptors. Historically the type is named the M1 -site, whereas pirenzepine sensitive site would be more appropriate. Although selective for M1 -sites pirenzepine also interact with M2 -sites.
All preparations are performed at 0-4° C. unless otherwise indicated. Fresh cortex (0.1-1 g) from male Wistar rats (150-200 g) is homogenized for 5-10 s. in 10 ml 20 mM Hepes pH: 7.4, with an Ultra-Turraxhomogenizer. The homogenizer is rinzed with 2×10 ml of buffer and the combined suspension centrifuged for 15 min at 40,000 xg. The pellet is washed three times with buffer. In each step the pellet is homogenized as before in 3×10 ml of buffer and centrifuged for 10 min at 40,000 xg.
The final pellet is homogenized in 20 mM Hepes pH: 7.4 (100 ml per g of original tissue) and used for binding assay. Aliquots of 0.5 ml is added 20 μl of test solution and 25 μl of ^3 H-Pirenzepine·(1.0 nM, final conc.), mixed and incubated for 60 min at 20° C. Non-specific binding is determined in triplicate using atropine (1 μg/ml, final conc.) as the test substance. After incubation samples are added 5 ml of ice-cold buffer and poured directly onto Whatman GF/C glass fiber filters inder suction and immediately washed 2 times with 5 ml of ice-cold buffer. The amount of radioactivity on the filters are determined by conventional liquid scintillation counting. Specific binding is total binding minus non-specific binding.
Test substances are dissolved in 10 ml water, at a concentration of 0.22 mg/ml. 25-75% inhibition of specific binding must be obtained before calculation of IC50.
The test value will be given as IC50 (the concentration, nM) of the test substance which inhibits the specific binding of ^3 H-PRZ by 50%.
as §1

Regarding `CCOc1nsnc1C1=CCC[N+](C)(CC)C1` (centres unmarked) [Compound 10, 3-(3-Ethoxy-1,2,5-thiadiazol-4-yl)-1,2,5,6-tetrahydro-1-ethyl-1-methyl-pyridinium iodide], the IC50 in test [1] was determined as 15.5 nM; in test [2], 56 nM. In the case of `CCCCCCSc1nsnc1C1=CCC[N+](C)(C)C1` [Compound 1, 3-(3-Hexylthio-1,2,5-thiadiazol-4-yl)-1,2,5,6-tetrahydro-1,1-dimethylpyridinium iodide], the figures for the IC50 in test [1] and in test [2] were 3.4 nM and 6 nM, respectively. Turning to `C[N+]12CCCC(C1)C(c1nsnc1OCC#Cc1ccsc1)C2` (single isomer, unassigned) [Compound 11, Exo(+) 6-(3-(3-(3-Thienyl)-2-propyn-1-yloxy)-1,2,5-thiadiazol-4-yl)-1-azabicyclo[3.2.1]-octane iodide], in test [1], the IC50 is 35 nM. On to `CCSc1nsnc1C1=CCC[N+](C)(C)C1` [Compound 9, 3-(3-Ethylthio-1,2,5-thiadiazol-4-yl)-1,2,5,6-tetrahydro-1,1-dimethylpyridinium iodide], for which the IC50 in test [1] worked out at 1.6 nM; in test [2], 26 nM. Regarding `CCCCCSc1nsnc1[C@H]1C[N@@+]2(C)CCC[C@@H]1C2` (relative stereo) [Compound 6, Endo 6-(3-Pentylthio-1,2,5-thiadiazol-4-yl)-1-methyl-1-azabicyclo[3.2.1]octane iodide], the figures for the IC50 in test [1] and in test [2] were 4.8 nM and 2.3 nM, respectively.

On to `CCCCCCOc1nsnc1C1=CCC[N+](C)(C)C1` [Compound 2, 3-(3-Hexyloxy-1,2,5-thiadiazol-4-yl)-1,2,5,6-tetrahydro-1,1-dimethylpyridinium iodide], for which the IC50 in test [1] is 3.3 nM; in test [2] it was 9 nM. As to `CCCCSc1nsnc1[C@H]1C[N@@+]2(C)CCC[C@@H]1C2` (relative stereo) [Compound 5, Endo 6-(3-Butylthio-1,2,5-thiadiazol-4-yl)-1-methyl-1-azabicyclo[3.2.1]octane iodide], the IC50 in test [1] worked out at 3.3 nM; in test [2], 8.8 nM. For `CCCCCSc1nsnc1[C@@H]1C[N@@+]2(C)CCC[C@@H]1C2` (relative stereo) [Compound 7, Exo 6-(3-Pentylthio-1,2,5-thiadiazol-4-yl)-1-methyl-1-azabicyclo[3.2.1]octane iodide] the same measures were 4.9 nM and 135 nM. `C[N+]12CCCC(C1)C(c1nsnc1SCC#Cc1ccccc1)C2` (single isomer, unassigned) [Compound 13, Exo(+) 6-(3-(3-(3-Phenyl)-2-propyn-1-ylthio)-1,2,5-thiadiazol-4-yl)-1-azabicyclo[3.2.1]-octane iodide] had an IC50 in test [1] of 13 nM. On to `CCOc1nsnc1C1=CCC[N+](C)(C)C1` [Compound 3, 3-(3-Ethoxy-1,2,5-thiadiazol-4-yl)-1,2,5,6-tetrahydro-1,1-dimethylpyridinium iodide], for which the IC50 was 0.59 nM in test [1] and 4.5 nM in test [2]. In the case of `C[N+]12CCCC(C1)C(c1nsnc1OCC#Cc1cccs1)C2` (single isomer, unassigned) [Compound 12, Exo(+) 6-(3-(3-(2-Thienyl)-2-propyn-1-yloxy)-1,2,5-thiadiazol-4-yl)-1-azabicyclo[3.2.1]-octane iodide], the IC50 in test [1] stood at 63 nM. For `CCSc1nsnc1C1=CCC[N+](C)(CC)C1` (centres unmarked) [Compound 8, 3-(3-Ethylthio-1,2,5-thiadiazol-4-yl)-1,2,5,6-tetrahydro-1-ethyl-1-methylpyridinium iodide], the IC50 in test [1] is 3.5 nM; in test [2] it was 28 nM. In the same order, the values of `CCCCSc1nsnc1C1C[N+]2(C)CCC1CC2` (centres unmarked) [Compound 4, 3-(3-Butylthio-1,2,5-thiadiazol-4-yl)-1-methyl-1-azabicyclo[2.2.2]octane iodide] are 1.5 nM and 4.9 nM.

The values above are taken from patent US6083957A, “Heterocyclic compounds and their preparation and use” (Novo Nordisk A/S, priority 1996, dated 2000).
